# Laboratory results taken from US11851681B2, “Cell preparation method” (KYOTO PREFECTURAL PUBLIC UNIVERSITY CORPORATION, priority 2015, dated 2023).
# Entries after “also recorded” stand apart in the source; their conditions may differ. Where two headings read alike, the source gives them in different places.
# Tests used:
# [1] = system: Human normal skin-derived fibroblasts (HDFs); experiment: Alizarin Red S and ALP staining, absorbance, TGF-β pathway inhibitor panel, Examples 31-32; assay type: cell-based
# Protocol: On day 21, the culture medium was removed from a part of the well, washed with PBS(-), and fixed with a fixative. It was washed 3 times with sterile distilled water. […] In the experiment of Example 31, the solution after staining with the Alizarin Red S staining solution was collected in a 96 well plate and the absorbance (OD 550 nm) was measured with an absorption spectrometer.
# [2] = system: human dermal fibroblasts; HDFs; experiment: Alizarin Red S staining (staining figure), fibroblast to osteoblast, Example 1; assay type: cell-based; conditions: each compound 2 μM in calcification induction medium; day 24; FIG. 1
# Protocol: It was washed 3 times with sterile distilled water. […] The well after staining was washed with sterile distilled water and photographed.
# The concentrations of the compounds are as follows: • D4476: 2 μM • ALK5 inhibitor II: 2 μM • SB431542: 2 μM.
# [3] = system: human dermal fibroblasts; HDFs; conditions: 4 μM in calcification induction medium; day 18; FIG. 22
# Protocol: The calcification induction medium is a 10% FBS DMEM added with 50 μg/ml ascorbic acid, 10 mM β-glycerophosphate and 100 nM Dexamethasone. The culture medium was exchanged with a fresh one every 3-4 days, and culturing was performed until day 18.
# On day 18, the culture medium was removed from each well by suction, washed with PBS, and total RNA was extracted from the cell with ISOGEN II. cDNA was synthesized from the RNA by using Rever Tra Ace qPCR RT Master Mix. This cDNA was admixed with Real-time PCR Master Mix, and primers specific to Osteocalcin, Alkaline Phosphatase or β-actin gene, and Taqman probe. qRT-PCR was performed using AB7300 Real-time PCR system. The mRNA level of Osteocalcin (Oc) and Alkaline Phosphatase (ALP) gene was quantified as a ratio to β-actin gene mRNA, and calculated with the value of fibroblast cultured in a calcification induction medium as 1.
# [4] = system: human dermal fibroblasts; HDFs; experiment: Oil Red O staining, fibroblast to brown adipocyte, Example 12; assay type: cell-based; conditions: compound 2 μM in addition to T3 1 nM and Rosiglitazone 1 μM, adipocyte induction medium; day 14; FIG. 12
# Protocol: The concentrations of the additives are as follows: • T3: 1 nM • Rosiglitazone: 1 μM • D4476: 2 μM • Pifithrin alpha [p53 inhibitor]: 5 μM • SB431542: 2 μM • ALK5 Inhibitor II: 2 μM.
# Then, the cells were washed with sterile distilled water and photographed with a phase contrast microscope at ×100 magnification.
# [5] = system: Human normal skin-derived fibroblasts (HDFs); conditions: 4 μM in adipocyte induction medium Day 1 to Day 8; day 14; FIG. 46
# Protocol: Human normal skin-derived fibroblasts (HDFs) were suspended in a general medium (DMEM added with 10% FBS). […] The adipocyte induction medium is DMEM added with 1 nM T3, 1 μM Rosiglitazone, 0.5 mM 3-isobutyl-1-methylxanthine (IBMX), 0.5 μM dexamethasone, 1 μg/mL Insulin and 10% FBS. […] On day 14, the culture medium was removed by suction from each well, and washed with PBS(−). […] After washing 3 times with PBS(−), Blocking One was added, and the mixture was incubated at room temperature for 60 min. Anti-UCP-1 antibody (RD MAB6158) was added and the mixture was reacted for 2 hrs at room temperature, and washed 3 times with Wash buffer. CF488-conjugated anti-mouse Ig antibody (Biotum 20014) was added and the mixture was reacted for 2 hrs at room temperature, and washed 3 times with PBS(−). After nuclear staining with SlowFade Gold antifade reagent with DAPI manufactured by Lifetechnology, the cells were photographed with a fluorescence microscope at ×100 magnification.
# [6] = system: Human Epidermal Keratinocyte; NHEK (AD); experiment: Real-time RT-PCR of UCP1 and CIDEA, keratinocyte to brown adipocyte, Example 43; assay type: cell-based; conditions: K-adipocyte induction medium; ALK5 inhibitor II 4 μM or LY2157299 8 μM, Day 1 to Day 8; day 14; FIG. 47
# Protocol: Normal human epidermal keratinocyte (Human Epidermal Keratinocyte; NHEK (AD)) were suspended in a serum-free liquid medium for normal human epidermal keratinocyte proliferation (HuMedia-KG2; manufactured by Kurabo).
# The K-adipocyte induction medium is HuMedia-KG2 added with 1 nM T3, 1 μM Rosiglitazone, 0.5 mM 3-isobutyl-1-methylxanthine (IBMX), 0.5 μM dexamethasone, and 1 μg/mL Insulin.
# Once every 2 days, the culture medium was exchanged with a fresh one, and culturing was performed from Day 1 to Day 8. Thereafter, from Day 9 to Day 14, the cells were cultured in a medium free of ALK5 inhibitor II or LY2157299. On day 14, the culture medium was removed by suction from each well, washed with PBS(−) and total RNA was extracted from the cells by using RNA easy Mini Kit manufactured by Qiagen. cDNA was synthesized from the RNA by using Rever Tra Ace qPCR RT Master Mix. This cDNA was admixed with Real-time PCR Master Mix, primers specific to UCP-1 gene, CIDEA gene or β actin gene and Taqman probe. qRT-PCR was performed using AB7300 Real-time PCR system. The mRNA level of UCP1 gene and CIDEA gene was quantified as a ratio to β-actin gene mRNA level, and calculated with the value of fibroblast cultured in the general medium as 1.
# [7] = system: Human normal skin-derived fibroblasts (HDFs); experiment: Immunostaining of UCP1, four inhibitors, Example 40; assay type: cell-based; conditions: LY2157299 8 μM, SB431542 4 μM, D4476 4 μM, Day 1 to Day 8, day 14, FIG. 44
# Protocol: Human normal skin-derived fibroblasts (HDFs) were suspended in a general medium (DMEM added with 10% FBS). […] The adipocyte induction medium is DMEM added with 1 nM T3, 1 μM Rosiglitazone, 0.5 mM 3-isobutyl-1-methylxanthine (IBMX), 0.5 μM dexamethasone, 1 μg/mL Insulin and 10% FBS. Once every 2 days, the culture medium was exchanged with a fresh one, and culturing was performed from Day 1 to Day 8. Thereafter, from Day 9 to Day 14, the cells were cultured in an adipocyte induction medium free of ALK5 inhibitor II, LY2157299, SB431542, D4476. On day 14, the culture medium was removed by suction from each well, and washed with PBS(−). After fixing with 4% para-formaldehyde, the well was washed with PBS (−), Permanent wave Buffer (0.2% Triton-X addition PBS) was added and the well was incubated for 15 min. After washing 3 times with PBS(−), Blocking One was added, and the mixture was incubated at room temperature for 60 min. Anti-UCP-1 antibody (RD MAB6158) was added and the mixture was reacted for 2 hrs at room temperature, and washed 3 times with Wash buffer. CF488-conjugated anti-mouse Ig antibody (Biotum 20014) was added and the mixture was reacted for 2 hrs at room temperature, and washed 3 times with PBS(−). After nuclear staining with SlowFade Gold antifade reagent with DAPI manufactured by Lifetechnology, the cells were photographed with a fluorescence microscope at ×100 magnification.
# HDF45, HDF69, HDF22 = conditions: 4 μM in calcification induction medium; day 10 (ALP), day 15 (Alizarin Red S); FIG. 37, 38
# Description: (§1) It was washed 3 times with sterile distilled water.
# as §1
# [8] = system: human dermal fibroblasts; HDFs; experiment: Bodipy staining in WA medium, four inhibitors, Example 48; assay type: cell-based; conditions: day 12, FIG. 52
# [9] = system: human dermal fibroblasts; HDFs; experiment: Bodipy staining in WA medium (BODIPY positive cells), Example 46; conditions: day 12, FIG. 50
# [10] = system: human dermal fibroblasts; HDFs; conditions: cartilage induction medium added with 2 M ALK5 inhibitor II; day 18; FIG. 9
# Protocol: Once every 2 days, the culture medium was exchanged with a fresh one, and culturing was performed until day 18. The cells were washed twice with PBS(−), once with 3% acetic acid solution, an alcian blue staining solution (PH2.5) (Nacalai Tesque) was added and the cells were stained for 1 hr at room temperature. The cells were washed 3 times with PBS(−) and observed under a microscope.
# [11] = system: Human normal skin-derived fibroblasts (HDFs); conditions: FIG. 42
# Protocol: Human normal skin-derived fibroblasts (HDFs) were suspended in a general medium (DMEM added with 10% FBS). […] An adipocyte induction medium was added to group 2 at 1 mL/well. An adipocyte induction medium added with ALK5 inhibitor II at a concentration of 4 μM was added to groups 3-8 at 1 mL/well.
# The adipocyte induction medium is DMEM added with 1 nM T3, 1 μM Rosiglitazone, 0.5 mM 3-isobutyl-1-methylxanthine (IBMX), 0.5 μM dexamethasone, 1 μg/mL Insulin and 10% FBS. Once every 2 days, the culture medium was exchanged with a fresh one. In groups 3-7, as described in the Figure, the cells were cultured in an adipocyte induction medium added with ALK5 inhibitor II only in the period of days 0-2, 0-4, 0-6, 0-8, 0-10, and thereafter cultured in an adipocyte induction medium free of ALK5 inhibitor II. On day 14, the culture medium was removed by suction from each well, and washed with PBS(−). After fixing with 4% para-formaldehyde, the well was washed with PBS (−), Permanent wave Buffer (0.2% Triton-X-added PBS) was added and the well was incubated for 15 min. After washing 3 times with PBS(−), Blocking One was added, and the mixture was incubated at room temperature for 60 min. Anti-UCP-1 antibody (RD MAB6158) was added and the mixture was reacted for 2 hrs at room temperature, and washed 3 times with Wash buffer. CF488-conjugated anti-mouse Ig antibody (Biotum 20014) was added and the mixture was reacted for 2 hrs at room temperature, and washed 3 times with PBS(−). After nuclear staining with SlowFade Gold antifade reagent with DAPI manufactured by Lifetechnology, the cells were photographed with a fluorescence microscope at ×100 magnification.
compound,measurement,setting,value
"Cc1cccc(-c2n[nH]cc2-c2ccc3ncccc3n2)n1 [ALK5 inhibitor II, 2-(3-(6-Methylpyridin-2-yl)-1H-pyrazol-4-yl)-1,5-naphthyridine]","conversion of human fibroblast to osteoblast, Alizarin Red S / ALP staining and absorbance","[1]; calcification induction medium, compounds 1 or 4 μM, TGF-β 10 ng/ml, day 21, FIG. 35, 36, listed as ALK5 i II",can strongly convert human fibroblast to osteoblast; also recorded: can most strongly convert human fibroblast to osteoblast
same,efficiency in converting fibroblast to osteoblast (summary statement),"[1]; description, conditions not given",highly efficient in converting fibroblast to osteoblast
same,"conversion of human fibroblast to osteoblast, Alizarin Red S staining (staining figure)",[2],converted to osteoblast having calcified is bone matrix production ability; also recorded: most efficiently converts fibroblast to osteoblast
same,"conversion of fibroblast to osteoblast, Osteocalcin and ALP mRNA",[3],converted human skin-derived fibroblast to osteoblast expressing osteocalcin gene and ALP gene
same,"conversion of fibroblast to brown adipocyte, Oil Red O staining",[4],converted fibroblast to brown adipocyte
same,fibroblasts converted to brown adipocyte highly expressing UCP1 protein (UCP1 positive cells in DAPI positive cells),[5],more than 90%
same,staining with anti-UCP1 antibody,[5],many cells were strongly stained with anti-UCP1 antibody
same,"conversion of epidermal keratinocyte to brown adipocyte, UCP1 and CIDEA mRNA",[6],converted normal human epidermal keratinocyte to brown adipocyte expressing UCP1 gene and CIDEA gene
same,"conversion of fibroblast to brown adipocyte, UCP1 protein",[7]; ALK5 inhibitor II 4 μM,converted fibroblast to brown adipocyte expressing UCP1 protein; also recorded: most strongly induced
same,staining with anti-UCP1 antibody,[7]; groups 3-6: ALK5 inhibitor II 4 μM,many cells were stained with anti-UCP1 antibody; also recorded: the density of the cells stained with anti-UCP1 antibody was the highest
same,"conversion of fibroblasts from different individuals to osteoblasts, ALP and Alizarin Red S staining","HDF45, HDF69, HDF22",are converted to osteoblasts
same,"lipid droplets stained with Bodipy, inhibitor alone",[8]; WA medium added with 16 μM compound alone,only a few cells contained lipid droplets stained with Bodipy
same,"lipid droplets stained with Bodipy / conversion to white adipocyte, inhibitor and Rosiglitazone",[8]; WA medium added with 16 μM compound and 1 μM Rosiglitazone,many cells were stained; also recorded: most strongly induced conversion of fibroblast to white adipocyte
same,"BODIPY positive cells / conversion to white adipocyte, co-addition with Rosiglitazone",[9]; WA medium co-added with 8 μM or 16 μM ALK5 inhibitor II and 1 μM Rosiglitazone,more cells were stained; also recorded: more strongly induced conversion of fibroblast to white adipocyte
same,"BODIPY positive cells / conversion to white adipocyte, single addition","[9]; WA medium, 1 μM Rosiglitazone or 16 μM ALK5 inhibitor II",contained stained cells at low frequency; also recorded: converted human fibroblast to white adipocyte
same,"conversion of fibroblast to cartilage, alcian blue staining",[10],can convert human normal skin-derived fibroblast to cartilage that produces cartilage matrix stained blue
same,"conversion of fibroblast to brown adipocyte, UCP1 protein, exposure 0-8 days","[11]; 4 μM for 0-8 days, thereafter medium free of ALK5 inhibitor II",can be more strongly induced
same,"staining with anti-UCP1 antibody, groups 3-8","[11]; 4 μM in adipocyte induction medium, days 0-2 to 0-10 or throughout, day 14",many cells were stained with anti-UCP1 antibody
same,"conversion of fibroblast to brown adipocyte, UCP1 protein","[11]; 4 μM in adipocyte induction medium, day 14",converted fibroblast to brown adipocyte is highly expressing UCP1 protein
same,"staining with anti-UCP1 antibody, group 6","[11]; 4 μM only in days 0-8, day 14",the density of the cells stained with anti-UCP1 antibody was the highest
